From the supplement of paper PMC10307832

Key:
Experiment in all cases: relative viability (nuclei count vs DMSO), 5 days (fraction); higher = more cells survive
[1] = compound: CN1CCN(CC1)C2=CC(=C(C=C2)NC3=NC=C4C(=N3)N(C5=CC=CC=C5C(=O)N4C)C)OC [XMD8-85] + CC(=O)Nc1cccc(-n2c(=O)n(C3CC3)c(=O)c3c(Nc4ccc(I)cc4F)n(C)c(=O)c(C)c32)c1 [Trametinib] (partner 0.02 µM)
Summary of the method: (§1)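 Lung cancer cell lines in 1536-well plates were dosed by pin tool the day after seeding, either with one drug alone or with a fixed anchor-drug dose plus five library-drug doses (not always all listed) in √10 steps. After 5 days, cells were fixed and their nuclei stained in one step (final 0.05% Triton X-100, 1% formaldehyde, 1 ug/ml Hoechst), then counted on 4× images. Relative viability is the nuclei count in treated wells divided by that in vehicle wells. Values are medians of duplicate plates.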

[2] = compound: CN1CCN(CC1)C2=CC(=C(C=C2)NC3=NC=C4C(=N3)N(C5=CC=CC=C5C(=O)N4C)C)OC [XMD8-85] + CS(=O)(=O)N1CCN(Cc2cc3nc(-c4cccc5[nH]ncc45)nc(N4CCOCC4)c3s2)CC1 [Pictilisib] (partner 1 µM)
Summary of the method: as §1

[3] = compound: CN1CCN(CC1)C2=CC(=C(C=C2)NC3=NC=C4C(=N3)N(C5=CC=CC=C5C(=O)N4C)C)OC [XMD8-85] + C[C@@H](Oc1cc(-c2cnn(C3CCNCC3)c2)cnc1N)c1c(Cl)ccc(F)c1Cl [Crizotinib] (partner 1 µM)
Summary of the method: as §1

[4] = compound: CN1CCN(CC1)C2=CC(=C(C=C2)NC3=NC=C4C(=N3)N(C5=CC=CC=C5C(=O)N4C)C)OC [XMD8-85] + Cc1nc(Nc2ncc(C(=O)Nc3c(C)cccc3Cl)s2)cc(N2CCN(CCO)CC2)n1 [Dasatinib] (partner 0.075 µM)
Summary of the method: as §1

[5] = compound: O=C(O)C(Cc1ccccc1[N+](=O)[O-])=NNc1nc(-c2ccc(Cl)c(Cl)c2)cs1 (mixture of isomers) [4EGI-1] + CC1(C)CCC(c2ccc(Cl)cc2)=C(CN2CCN(c3ccc(C(=O)NS(=O)(=O)c4ccc(N[C@H](CCN5CCOCC5)CSc5ccccc5)c(S(=O)(=O)C(F)(F)F)c4)cc3)CC2)C1 [Navitoclax] (partner 0.5 µM)
Summary of the method: as §1

Q: What does the source list for NCI-H1792?
A: relative viability ([1]; first compound 0.253 µM): 0.483; relative viability ([1]; first compound 0.8 µM): 0.308; relative viability ([1]; first compound 2.53 µM): 0.463; relative viability ([1]; first compound 8 µM): 0.271; relative viability ([2]; first compound 0.08 µM): 0.251; relative viability ([2]; first compound 0.253 µM): 0.226; relative viability ([2]; first compound 2.53 µM): 0.276; relative viability ([2]; first compound 8 µM): 0.317; relative viability ([3]; first compound 0.08 µM): 0.883; relative viability ([3]; first compound 0.253 µM): 0.822; relative viability ([3]; first compound 2.53 µM): 0.852; relative viability ([3]; first compound 8 µM): 0.905; relative viability ([4]; first compound 0.253 µM): 0.749; relative viability ([4]; first compound 2.53 µM): 1.15; relative viability ([4]; first compound 8 µM): 0.85; relative viability ([5]; first compound 0.5 µM): 0.618; relative viability ([5]; first compound 1.581 µM): 0.498; relative viability ([5]; first compound 5 µM): 0.607; relative viability ([5]; first compound 15.81 µM): 0.552; relative viability ([5]; first compound 50 µM): 0.542
